Earlier results on 1 substance are cited in US20170266197A1, “METHODS AND COMPOSITIONS FOR TREATING HEPATITIS B VIRUS INFECTIONS” (Indiana University Research and Technology Corporation, priority 2014, published 2017).

The data set relates to chronic hepatitis B infection.

Regarding alpha interferon, the “patients who show a long term benefit” value (many patients relapse after treatment is stopped) was “about 30%”. Besides, the “patients who respond to the treatment” value (of the chronic carriers obtaining this therapy) is “about 40%”. Under “treated patients”, the “viral disappearance in treated patients” value is on record as 10-20%.
